In patent publication US20170304388A1, “NEW INDICATION OF CARDIOVASCULAR DRUGS FOR PREPARATION OF CANCER INHIBITION PHARMACEUTICAL COMPOSITION” (LAUNX BIOMEDICAL CO., LTD., priority 2014, published 2017):
Counter-ions that a name gives are not always drawn. Like-named read-outs stand apart in the source and are kept apart here.

Tests used:
Assay type in all cases: cell-based
[1] = tested on: A375 (Amelanotic Melanoma); experiment: Cell viability analysis (WST-1), A375; conditions: Homo sapiens, WST-1, OD450 nm, lower viability = better inhibition, read-out: survival rate (viability) of cancer cells, A375
[2] = tested on: HCT116 (Colorectal Carcinoma); experiment: Cell viability analysis (WST-1), HCT116; conditions: Homo sapiens, HCT-116, 72 h, Table 3, drug 10 μM, WST-1, OD450 nm, read-out: survival rate (viability) of cancer cells, HCT116 (WT)
[3] = tested on: HepG2 (Hepatocellular Carcinoma); experiment: Cell viability analysis (WST-1), HepG2; conditions: Homo sapiens, WST-1, OD450 nm, read-out: survival rate (viability) of cancer cells, HepG2
[4] = tested on: HeLa (Cervix Adenocarcinoma); experiment: Cell viability analysis (WST-1), HeLa; conditions: Homo sapiens, HeLa, WST-1, OD450 nm, read-out: survival rate (viability) of cancer cells, HeLa
[5] = tested on: AGS (Gastric Adenocarcinoma); experiment: Cell viability analysis (WST-1), AGS; conditions: WST-1, OD450 nm, read-out: survival rate (viability) of cancer cells, AGS
[6] = tested on: H1650 (Lung Adenocarcinoma); experiment: Cell viability analysis (WST-1), H1650; conditions: Homo sapiens, WST-1, OD450 nm, read-out: survival rate (viability) of cancer cells, H1650
[7] = tested on: MKN-45 (Gastric Adenocarcinoma); experiment: Cell viability analysis (WST-1), MKN-45; conditions: Homo sapiens, WST-1, OD450 nm, read-out: survival rate (viability) of cancer cells, MKN-45
[8] = tested on: TSGH-8301 (Urinary Bladder Carcinoma); experiment: Cell viability analysis (WST-1), TSGH-8301; conditions: WST-1, OD450 nm, read-out: survival rate (viability) of cancer cells, TSGH
[9] = tested on: A549 (Lung Adenocarcinoma); experiment: Cell viability analysis (WST-1), A549; conditions: Homo sapiens, WST-1, OD450 nm, read-out: survival rate (viability) of cancer cells, A549
[10] = tested on: MCF7 (Mammary Gland, Adenocarcinoma); experiment: Cell viability analysis (WST-1), MCF7; conditions: Homo sapiens, WST-1, OD450 nm, read-out: survival rate (viability) of cancer cells, MCF7
[11] = tested on: PC3 (Prostate Adenocarcinoma); experiment: Cell viability analysis (WST-1), PC3; conditions: WST-1, OD450 nm, read-out: survival rate (viability) of cancer cells, PC3
[12] = tested on: LoVo (Colorectal Adenocarcinoma); experiment: Cell viability analysis (WST-1), LoVo; conditions: Homo sapiens, LoVo, WST-1, OD450 nm, read-out: survival rate (viability) of cancer cells, LoVo
[13] = tested on: HL-60 (Acute Promyelocytic Leukemia); experiment: Cell viability analysis (WST-1), HL-60; conditions: Homo sapiens, HL-60; Table 3; drug 10 μM, 72 hours, WST-1, OD450 nm; read-out: survival rate (viability) of cancer cells, HL-60
cancer cell lines = experiment: Growth inhibitory effects on the panel of cancer cell lines; conditions: drug 10 μM, 72 hours; for Numbers of inhibitory effect on cancer cell line: count of cancer cell lines inhibited; for inhibition effect on different cancer cell lines (in words): WST-1
[14] = A-375, 72 h, Table 3, drug 10 μM
[15] = HepG2, 72 h, Table 3, drug 10 μM
[16] = NCI-H1650, 72 h, Table 3, drug 10 μM
[17] = MKN-45, 72 h, Table 3, drug 10 μM
[18] = A549, 72 h, Table 3, drug 10 μM
[19] = MCF7, 72 h, Table 3, drug 10 μM

Row | SMILES | viability at 10 µM [1, 14] [%] | viability at 10 µM [2] [%] | viability at 10 µM [3, 15] [%] | viability at 10 µM ([4]; 72 h, Table 3, drug 10 μM) [%] | viability at 10 µM ([5]; 72 h, Table 3, drug 10 μM) [%] | viability at 10 µM [6, 16] [%] | viability at 10 µM [7, 17] [%] | viability at 10 µM ([8]; 72 h, Table 3, drug 10 μM) [%] | viability at 10 µM [9, 18] [%] | viability at 10 µM [10, 19] [%] | viability at 10 µM ([11]; 72 h, Table 3, drug 10 μM) [%] | viability at 10 µM ([12]; 72 h, Table 3, drug 10 μM) [%] | viability at 10 µM [13] [%] | Numbers of inhibitory effect on cancer cell line (cancer cell lines) | inhibition effect on different cancer cell lines (in words) (cancer cell lines) | also measured
1 | O=C(O)c1cc(=O)c2ccccc2o1 [Chromocarb] | 63.4 | 72.8 | 95.6 | 67.6 | 81.8 | 78.8 | 100 | 97.2 | 61.1 | 100 | 88.3 | 72.5 | 110 | 0 | significant inhibition effect | 
2 | NS(=O)(=O)c1cc2c(cc1Cl)NC(C(Cl)Cl)NS2(=O)=O (stereo not shown) [Trichlormethiazide (Achletin), Trichlormethiazide] | 128 | 112 | 95.1 | 85.7 | 79.3 | 76.7 | 71 | 95.6 | 106 | 64.2 | 122 | 107 | 102 | 0 | significant inhibition effect | 
3 | CCOC(=O)[C@H](CCc1ccccc1)N[C@@H](C)C(=O)N1[C@H](C(=O)O)C[C@@H]2CCC[C@@H]21 [Ramipril (Altace), Ramipril] | 120 | 108 | 106 | 84.3 | 99.8 | 135 | 84 | 114 | 99.6 | 82.4 | 104 | 81.9 | 107 | 0 | significant inhibition effect | 
4 | CCN(CC)CCOC(=O)C(c1ccccc1)c1ccccc1 [Adiphenine HCl] | 87.6 | 134 | 95.5 | 96.4 | 109 | 119 | 95.7 | 82 | 86.8 | 103 | 102 | 95.7 | 105 | 0 | significant inhibition effect | 
5 | CO[C@@H]1[C@@H](OC(N)=O)[C@@H](O)[C@H](Oc2ccc3c(O)c(NC(=O)c4ccc(O)c(CC=C(C)C)c4)c(=O)oc3c2C)OC1(C)C [Novobiocin sodium (Albamycin), Novobiocin sodium] | 93.4 | 116 | 92 | 96.1 | 128 | 93.5 | 84.4 | 85.3 | 95.2 | 109 | 89 | 87.1 | 123 | 0 | significant inhibition effect | 
6 | O=C(O)/C=C/c1ccc(Cn2ccnc2)cc1 [Ozagrel] | 74.7 | 102 | 91.2 | 77.7 | 98.5 | 80.6 | 93.9 | 69.4 | 77.7 | 102 |  | 80.6 | 118 | 0 | significant inhibition effect | 
7 | CCCCNc1cc(C(=O)O)cc(S(N)(=O)=O)c1Oc1ccccc1 [Bumetanide] | 67.6 | 66.8 | 86 | 79.5 | 69.9 | 105 | 98.8 | 92.6 | 88.2 | 116 | 72.7 | 98.6 | 98.3 | 0 | significant inhibition effect | 
8 | O=C(O)c1nn(Cc2ccc(Cl)cc2Cl)c2ccccc12 [Lonidamine] | 65.8 | 81.2 | 114 | 61.6 | 69.9 | 65.9 | 93.3 | 86.4 | 109 | 86.9 | 102 | 96.1 | 115 | 0 | significant inhibition effect | 
9 | CC(C)OC(=O)C(C)(C)Oc1ccc(C(=O)c2ccc(Cl)cc2)cc1 [Fenofibrate (Tricor, Trilipix), Fenofibrate] | 159 | 98.9 | 104 | 98.3 | 84.1 | 122 | 83.1 | 103 |  | 78.1 | 105 |  | 77.6 |  |  | 
10 | Cc1[nH]c(=O)c(C#N)cc1-c1ccncc1 [Milrinone (Primacor), Milrinone] |  | 104 | 98.5 | 99 | 130 | 86.2 | 92.9 |  | 90.9 | 98.5 | 92 | 90.5 | 112 | 0 | significant inhibition effect | 
11 | Cc1cccc(C)c1N=C1NCCCS1 [Xylazine HCl] |  |  |  |  |  |  |  |  |  |  |  |  | 116 | 0 | significant inhibition effect | viability at 10 µM ([1]; A-375, Table 3, drug 10 μM, 72 hours): 63.5%; viability at 10 µM ([3]; HepG2, Table 3, drug 10 μM, 72 hours): 83.5%; viability at 10 µM ([4]; Table 3, drug 10 μM, 72 hours): 65.1%; viability at 10 µM ([5]; Table 3, drug 10 μM, 72 hours): 86.3%; viability at 10 µM ([6]; NCI-H1650, Table 3, drug 10 μM, 72 hours): 67.2%; viability at 10 µM ([7]; MKN-45, Table 3, drug 10 μM, 72 hours): 88.7%; viability at 10 µM ([8]; Table 3, drug 10 μM, 72 hours): 61.5%; viability at 10 µM ([9]; A549, Table 3, drug 10 μM, 72 hours): 71.7%; viability at 10 µM ([10]; MCF7, Table 3, drug 10 μM, 72 hours): 104%; viability at 10 µM ([11]; Table 3, drug 10 μM, 72 hours): 105%; viability at 10 µM ([12]; Table 3, drug 10 μM, 72 hours): 96.6%
